Experiments:
[1] = Tested in vitro for its ability to displace 3[H] clozapine from non-muscarinic receptor in rat brain; type: tissue-based
[2] = biological target: Dopamine receptor; experiment: Displacement of 3[H]spiroperidol from Dopamine receptor in rat brain
[3] = biological target: Muscarinic acetylcholine receptor; experiment: Tested in vitro for its ability to displace 3[H] clozapine from Muscarinic acetylcholine receptor in rat brain; type: tissue-based

| Compound | IC50 [1] [µM] | IC50 [2] [µM] | IC50 [3] [µM] |
| --- | --- | --- | --- |
| CN1CCN(C2=Cc3cc(Cl)ccc3Cc3ccccc32)CC1 | 0.013 |  |  |
| CN1CCN(C2=Nc3ccccc3Nc3ccccc32)CC1 | 0.025 | > 10 |  |
| CN1CCN(C2=Cc3ccccc3Cc3ccc(Cl)cc32)CC1 | 0.01 |  |  |
| CN1CCN(C2=Cc3ccccc3Cc3ccccc32)CC1 | 0.0037 |  |  |
| CN1CCN(C2=Cc3cc(Cl)ccc3Oc3ccccc32)CC1 | 0.0094 | 0.357 | 1.97 |
| CN1CCN(C2=Cc3ccccc3Oc3ccccc32)CC1 | 0.004 | 1.5 | 2.29 |
| CN1CCN(C2=Cc3ccccc3Oc3ccc(Cl)cc32)CC1 | 0.0073 | 0.027 | 2.027 |
| CN1CCN(C2=Nc3cc(Cl)ccc3Nc3ccccc32)CC1 [CLOZAPINE] | 0.013 |  |  |
| CN1CCN(C2=Nc3ccccc3Nc3ccc(Cl)cc32)CC1 [ISOCLOZAPINE] | 0.017 |  | 0.028 |
